Measurements as given in patent publication US8921421B2, “Inhibitors of dimethylarginine dimethylaminohydrolase” (Christian-Albrechts-Universitaet Zu Kiel, priority 2008, dated 2014).

Assays:
Type in all cases: biochemical
hDDAH-1 [1] = biological target: T1, hDDAH-1 (Homo sapiens (Human), UniProt O94760); assay: In vitro hDDAH-1 assay (HPLC), inhibition at 1 mM inhibitor; conditions: inhibitor 1 mM, NMMA 200 μM, 2 μg hDDAH-1, 30 min 37° C.; MV±SD of at least four incubations
Protocol: This assay was used to determine the inhibiting effect of the inhibitors in a concentration of 1 mM. A standard incubation mixture consisted of 75 μl of 50 mM potassium phosphate buffer pH 7.4 and contained NMMA in a concentration of 200 μM. The inhibitors were used in final concentrations of 1 mM. By adding 2 μg of hDDAH-1, the reaction was started and the samples were incubated for 30 minutes at 37° C. in, a shaking water bath. The reaction was then stopped by adding 75 μl of acetonitrile, the samples were shaken for 5′ minutes and centrifuged (12,000 g, 5 min). The supernatant was added to the HPLC.
In addition, three incubations without added inhibitor were carried out in each case and worked up as specified above. The L-citrulline concentration detected in the samples was set at 100% and the amount of L-citrulline formed in the samples with added inhibitor was referred to this value.
For analysing the samples of the in vitro hDDAH-1 assay (HPLC), o-PA pre-column derivatisation was used with subsequent fluorescence detection of the amino acids. • HPLC plant: Waters Autosampler 717plus, Waters 600 Controller, Waters 600 Pump, Waters Fluorescence Detector 470 and EZChrom Elite Client/Server Measurement and evaluation software (version 2.8.3) • Stationary phase: NovaPak RP-18 column 4 μm (4×150 mm, VDS Optilab) pre-column: Phenomenex C18 (4×3.0 mm) • Temperature: 30° C.
• Detection: Fluorescence: λex: 338 nm; 425 nm. • Injection volume: 10 μl • Derivat. reagent: 50 mg o-PA dissolved in 1 ml of methanol • +9 ml 0.2 M of potassium borate buffer pH 9.4 • +53 μl 2-mercaptoethanol • Derivatisation: The auto sampler was programmed such that 10 μl of the sample were mixed with 14 μl of the derivatisation reagent and could react for 3 minutes at room, temperature prior to injection. Retention times: • L-citrulline 12.2±0.3 min • NMMA 15.8±0.4 min • Methylamine 23.4±0.1 min

hDDAH-1 [2] = biological target: T1, hDDAH-1; assay: Determination of the IC50 value (plate-reader assay); conditions: NMMA 300 μM, 4 μg recombinant hDDAH-1, 30 min 37° C.; determined at least twice
Protocol: The samples for the plate-reader assay were incubated directly on a 96-well microtiter plate. An incubation mixture consisted of 150 μl of 50 mM potassium phosphate buffer pH 7.4 with NMMA in a final concentration of 300 μM. The inhibitor was added in five different concentrations and the reaction was started by adding 4 μg of recombinant hDDAH-1. In addition, two mixtures without added inhibitor were incubated. The plate was closed with a lid and incubated for 30 minutes on a plate incubator (shaker DTS-4, LTF-Labortechnik GmbH, Wasserburg, Germany) at 37° C. The reactions were stopped using 200 μl of the Colder reagent and the citrulline that had formed was derivatised (see derivatisation for plate-reader assay). The IC50 value was then calculated by means of SigmaPlot 8.0 (SPSS Chicago, USA). Derivatisation was carried out on particularly heat-stable 96-well microtiter plates. 200 μl of the Colder reagent was added to the samples (150 μl) and to prevent evaporation, the plate was closed with a heat-stable adhesive film (Nunc, Wiesbaden, Germany). Colour formation then took place in the drying oven at 95° C. for 15-20 minutes. Before photometric measurements were taken, there was a wait until the plate had reached room temperature and then the colour intensity at 540.5 nm (Carry 50 microplate reader, Varian, Darmstadt, Germany) was measured.

hDDAH-1 [3] = biological target: T1, hDDAH-1; assay: Determination of the Ki value (plate-reader assay); conditions: five NMMA concentrations (50-1250 μM), recombinant hDDAH-1; determined at least twice
Protocol: The Ki value was determined as described for the IC50 value, with the difference that five different NMMA concentrations (50, 100, 300, 750 and 1250 μM) were used. The incubations were carried out such that each NMMA concentration was in each case incubated twice with each of the five inhibitor concentrations. On top of this, incubations using the different NMMA concentrations were carried out without added inhibitor.
For each inhibitor concentration, using SigmaPlot 8.0 (SPSS Inc., Chicago, USA) the respective apparent Km value and Vmax were determined. Via secondary plotting of the inhibitor concentrations versus Km/Vmax the Ki value was determined by extrapolation of the least-squares lines onto the abscissa.
Derivatisation was carried out on particularly heat-stable 96-well microtiter plates. 200 μl of the Colder reagent was added to the samples (150 μl) and to prevent evaporation, the plate was closed with a heat-stable adhesive film (Nunc, Wiesbaden, Germany). Colour formation then took place in the drying oven at 95° C. for 15-20 minutes. Before photometric measurements were taken, there was a wait until the plate had reached room temperature and then the colour intensity at 540.5 nm (Carry 50 microplate reader, Varian, Darmstadt, Germany) was measured. Measurement took place during 20 minutes since the reaction product is not stable (Knipp and Vasak 2000).

T1 sequence (O94760 whole entry): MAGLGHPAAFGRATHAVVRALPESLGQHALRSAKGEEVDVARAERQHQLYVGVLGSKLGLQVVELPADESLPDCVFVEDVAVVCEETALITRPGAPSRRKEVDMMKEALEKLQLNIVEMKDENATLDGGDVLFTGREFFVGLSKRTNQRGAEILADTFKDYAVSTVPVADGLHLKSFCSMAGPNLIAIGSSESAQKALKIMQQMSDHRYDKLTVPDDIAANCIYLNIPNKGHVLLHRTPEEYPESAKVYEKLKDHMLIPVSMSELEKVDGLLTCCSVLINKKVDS

| inhibition at 1000 µM (hDDAH-1 [1]) [%] | IC50 (hDDAH-1 [2]) [µM] | Ki (hDDAH-1 [3]) [µM] | SMILES |
| --- | --- | --- | --- |
| 80 ± 5 | 70 ± 16 | 18 ± 6 | COCC/N=C(/N)NCCCCN [Substance 3, N-(4-aminobutyl)-N′-(2-methoxyethyl)guanidine bis(trifluoracetate)] |
| 40 ± 6 | – | – | C=CCC(=N)NCCCCN [Substance 5, N-(4′-aminobutyl)but-3-enamidine bis(trifluoracetate)] |

| SMILES | inhibition at 1000 µM (hDDAH-1 [1]) [%] | IC50 (hDDAH-1 [2]) [µM] | Ki (hDDAH-1 [3]) [µM] |
| --- | --- | --- | --- |
| COCCNC(=N)NCCC[C@H](N)C(=O)O [Substance L-257, N^ω-(2-methoxyethyl)-L-arginine, reference compound] | 89 ± 2 | – | – |
